How the values were obtained:
[1] = target: Beta Secretase enzyme (BACE) (Homo sapiens, UniProt P56817); test: In vitro enzymatic BACE FRET (fluorescence resonance energy transfer) assay; format: biochemical; conditions: average IC50, enzyme assay; read-out: BACE 1 FRET assay
Method in brief: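 Fluorescence read after Tris quench to neutral pH. Reaction: 50 nM fluorophore/quencher peptide substrate, 1 h, in 0.05 M acetate pH 4.2, 10% DMSO final, 100 uM genapol.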

[2] = tested on: Aβ40 in conditioned medium of cells stably expressing Amyloid Precursor Protein (APP); test: In vitro BACE cell-based assay (Aβ40 in conditioned medium, sandwich ELISA); conditions: Homo sapiens, HEK293, average IC50, HEK cells; read-out: HEK cell assay
Method in brief: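 Step two: 10-point compound titration added, starting 100 μM or 10 μM, 0.1% DMSO. Step three: medium Aβ40 measured by ELISA, capture 3 h and detection 2 h at 4° C, TRF read.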

Chain of Beta Secretase enzyme (BACE) (P56817 46-501, species assumed): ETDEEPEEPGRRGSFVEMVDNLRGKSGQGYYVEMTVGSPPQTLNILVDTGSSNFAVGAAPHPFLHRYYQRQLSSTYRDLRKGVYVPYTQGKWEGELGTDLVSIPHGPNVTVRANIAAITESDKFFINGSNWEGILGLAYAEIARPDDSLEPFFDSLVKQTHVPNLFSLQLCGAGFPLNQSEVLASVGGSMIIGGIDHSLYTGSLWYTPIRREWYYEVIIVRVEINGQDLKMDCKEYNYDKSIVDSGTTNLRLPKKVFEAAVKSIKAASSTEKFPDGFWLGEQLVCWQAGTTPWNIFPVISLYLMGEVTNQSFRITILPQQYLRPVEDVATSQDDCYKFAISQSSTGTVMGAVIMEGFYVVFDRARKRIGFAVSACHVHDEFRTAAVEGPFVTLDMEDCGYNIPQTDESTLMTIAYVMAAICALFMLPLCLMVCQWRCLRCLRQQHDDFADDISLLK

IC50 [1] [nM] | IC50 [2] [nM] | SMILES
0.3 | 8 | NC1=N[C@@]2(CO1)c1cc(-c3cncc(F)c3)ccc1Oc1c2cc(N2CC[C@H](F)C2)nc1F [Example 926, (5S)-1-fluoro-7-(5-fluoro-3-pyridinyl)-3-((3S)-3-fluoro-1-pyrrolidinyl)spiro[chromeno[2,3-c]pyridine-5,4′-[1,3]oxazol]-2′-amine]
0.3 | 3 | NC1=N[C@@]2(CS1)c1cc(-c3cccnc3F)ccc1Oc1cnc(N3CC[C@@H](F)C3)cc12 [Example 929, (5S)-7-(2-fluoro-3-pyridinyl)-3-((3R)-3-fluoro-1-pyrrolidinyl)spiro[chromeno[2,3-c]pyridine-5,4′-[1,3]thiazol]-2′-amine]
4 | 57 | NC1=N[C@@]2(CS1)c1cc(-c3cccnc3F)ccc1Oc1cnc(C3CCOCC3)cc12 [Example 930, (5S)-7-(2-fluoro-3-pyridinyl)-3-(tetrahydro-2H-pyran-4-yl)spiro[chromeno[2,3-c]pyridine-5,4′-[1,3]thiazol]-2′-amine]
21.6 | 347 | NC1=N[C@@]2(CS1)c1cc(-c3cccnc3F)ccc1Oc1cnc([C@@H]3CCCOC3)cc12 [Example 931, (5S)-7-(2-fluoro-3-pyridinyl)-3-((3S)-tetrahydro-2H-pyran-3-yl)spiro[chromeno[2,3-c]pyridine-5,4′-[1,3]thiazol]-2′-amine]
16.2 | 208 | NC1=N[C@@]2(CS1)c1cc(-c3cccnc3F)ccc1Oc1cnc([C@H]3CCCOC3)cc12 [Example 932, (5S)-7-(2-fluoro-3-pyridinyl)-3-((3R)-tetrahydro-2H-pyran-3-yl)spiro[chromeno[2,3-c]pyridine-5,4′-[1,3]thiazol]-2′-amine]
0.5 | 33 | NC1=N[C@@]2(CS1)c1cc(-c3cccnc3F)ccc1Oc1cnc(N3CCC(F)(F)CC3)cc12 [Example 933, (5S)-3-(4,4-difluoro-1-piperidinyl)-7-(2-fluoro-3-pyridinyl)spiro[chromeno[2,3-c]pyridine-5,4′-[1,3]thiazol]-2′-amine]
1 | 5 | Cc1cc(-c2cc3c(cn2)Oc2ccc(-c4cccnc4F)cc2[C@@]32CSC(N)=N2)ccn1 [Example 934, (5S)-7-(2-fluoro-3-pyridinyl)-3-(2-methyl-4-pyridinyl)spiro[chromeno[2,3-c]pyridine-5,4′-[1,3]thiazol]-2′-amine]
6.6 | 82 | NC1=N[C@@]2(CO1)c1cc(-c3cnccn3)ccc1Oc1c(F)cc(C3CCOCC3)cc12 [Example 935, (4S)-4′-fluoro-7′-(2-pyrazinyl)-2′-(tetrahydro-2H-pyran-4-yl)spiro[1,3-oxazole-4,9′-xanthen]-2-amine]
3 | 28 | CC#Cc1cncc(-c2ccc3c(c2)[C@@]2(COC(N)=N2)c2cc(-c4ncccn4)ncc2O3)c1 [Example 936, (5S)-7-(5-(1-propyn-1-yl)-3-pyridinyl)-3-(2-pyrimidinyl)spiro[chromeno[2,3-c]pyridine-5,4′-[1,3]oxazol]-2′-amine]
1.7 | 28 | COc1cncc(-c2ccc3c(c2)[C@@]2(COC(N)=N2)c2cc(C4CCOCC4)cc(F)c2O3)c1 [Example 937, (4S)-4′-fluoro-7′-(5-methoxy-3-pyridinyl)-2′-(tetrahydro-2H-pyran-4-yl)spiro[1,3-oxazole-4,9′-xanthen]-2-amine]
4430 | 3850 | COc1ccc2c(c1)[C@@]1(COC(N)=N1)c1cc(C3(O)CCOCC3)cc(F)c1O2 [Example 938, 4-((4S)-2-amino-4′-fluoro-7′-methoxyspiro[1,3-oxazole-4,9′-xanthen]-2′-yl)tetrahydro-2H-pyran-4-ol]
1710 | 3560 | COc1ccc2c(c1)[C@@]1(COC(N)=N1)c1cc(C3(F)CCOCC3)cc(F)c1O2 [Example 939, (4S)-4′-fluoro-2′-(4-fluorotetrahydro-2H-pyran-4-yl)-7′-methoxyspiro[1,3-oxazole-4,9′-xanthen]-2-amine]
5.4 | 60 | Cc1ccc(-c2cnc3c(c2)[C@]2(CSC(N)=N2)c2cc(C#CC4(C)COC4)ccc2O3)cn1 [Example 940, (5S)-7-((3-methyl-3-oxetanyl)ethynyl)-3-(6-methyl-3-pyridinyl)spiro[chromeno[2,3-b]pyridine-5,4′-[1,3]thiazol]-2′-amine]
3.8 | 97 | COc1ccc(-c2cnc3c(c2)[C@]2(CSC(N)=N2)c2cc(C#CC4(C)COC4)ccc2O3)cn1 [Example 941, (5S)-3-(6-methoxy-3-pyridinyl)-7-((3-methyl-3-oxetanyl)ethynyl)spiro[chromeno[2,3-b]pyridine-5,4′-[1,3]thiazol]-2′-amine]
0.7 | 1 | CC#Cc1cncc(-c2ccc3c(c2)[C@@]2(COC(N)=N2)c2cc(C#CC4(C)COC4)cnc2O3)c1 [Example 943, (5S)-3-((3-methyl-3-oxetanyl)ethynyl)-7-(5-(1-propyn-1-yl)-3-pyridinyl)spiro[chromeno[2,3-b]pyridine-5,4′-[1,3]oxazol]-2′-amine]
0.5 | 1 | CC#Cc1cncc(-c2ccc3c(c2)[C@@]2(COC(N)=N2)c2cc(-c4cnn(C)c4)cnc2O3)c1 [Example 944, (5S)-3-(1-methyl-1H-pyrazol-4-yl)-7-(5-(1-propyn-1-yl)-3-pyridinyl)spiro[chromeno[2,3-b]pyridine-5,4′-[1,3]oxazol]-2′-amine]
0.8 | 2 | CC#Cc1cncc(-c2ccc3c(c2)[C@@]2(COC(N)=N2)c2cc(C#CC(C)(C)O)cnc2O3)c1 [Example 945, 4-((5S)-2′-amino-7-(5-(1-propyn-1-yl)-3-pyridinyl)spiro[chromeno[2,3-b]pyridine-5,4′-[1,3]oxazol]-3-yl)-2-methyl-3-butyn-2-ol]
0.3 | 4 | CC#Cc1cncc(-c2ccc3c(c2)[C@@]2(COC(N)=N2)c2cc(C4=CCOCC4)cc(F)c2O3)c1 [Example 946, (4S)-2′-(3,6-dihydro-2H-pyran-4-yl)-4′-fluoro-7′-(5-(1-propyn-1-yl)-3-pyridinyl)spiro[1,3-oxazole-4,9′-xanthen]-2-amine]
0.4 | 4 | CC#Cc1cncc(-c2ccc3c(c2)[C@@]2(COC(N)=N2)c2cc(OCC(C)(C)C#N)cc(F)c2O3)c1 [Example 948, 3-(((4S)-2-amino-4′-fluoro-7′-(5-(1-propyn-1-yl)-3-pyridinyl)spiro[1,3-oxazole-4,9′-xanthen]-2′-yl)oxy)-2,2-dimethylpropanenitrile]
0.4 | 3 | CC#Cc1cncc(-c2ccc3c(c2)[C@@]2(COC(N)=N2)c2cc(OCC4(C)COC4)cc(F)c2O3)c1 [Example 949, (4S)-4′-fluoro-2′-((3-methyl-3-oxetanyl)methoxy)-7′-(5-(1-propyn-1-yl)-3-pyridinyl)spiro[1,3-oxazole-4,9′-xanthen]-2-amine]
0.3 | 2 | CC#Cc1cncc(-c2ccc3c(c2)[C@@]2(COC(N)=N2)c2cc(C4=CCCOC4)cnc2O3)c1 [Example 950, (5S)-3-(5,6-dihydro-2H-pyran-3-yl)-7-(5-(1-propyn-1-yl)-3-pyridinyl)spiro[chromeno[2,3-b]pyridine-5,4′-[1,3]oxazol]-2′-amine]
0.6 | 4 | CC#Cc1cncc(-c2ccc3c(c2)[C@@]2(COC(N)=N2)c2cc(N4CCOCC4)cc(F)c2O3)c1 [Example 952, (4S)-4′-fluoro-2′-(4-morpholinyl)-7′-(5-(1-propyn-1-yl)-3-pyridinyl)spiro[1,3-oxazole-4,9′-xanthen]-2-amine]
0.3 | 4 | CC#Cc1cnc(F)c(-c2ccc3c(c2)[C@@]2(COC(N)=N2)c2cc(C4=CCOCC4)cnc2O3)c1 [Example 953, (5S)-3-(3,6-dihydro-2H-pyran-4-yl)-7-(2-fluoro-5-(1-propyn-1-yl)-3-pyridinyl)spiro[chromeno[2,3-b]pyridine-5,4′-[1,3]oxazol]-2′-amine]
0.3 | 3 | CC#Cc1cnc(F)c(-c2ccc3c(c2)[C@@]2(COC(N)=N2)c2cc(-c4cnn(C)c4)cnc2O3)c1 [Example 954, (5S)-7-(2-fluoro-5-(1-propyn-1-yl)-3-pyridinyl)-3-(1-methyl-1H-pyrazol-4-yl)spiro[chromeno[2,3-b]pyridine-5,4′-[1,3]oxazol]-2′-amine]
0.5 | 2 | CC#Cc1cnc(F)c(-c2ccc3c(c2)[C@@]2(COC(N)=N2)c2cc(C#CC4(C)COC4)cnc2O3)c1 [Example 955, (5S)-7-(2-fluoro-5-(1-propyn-1-yl)-3-pyridinyl)-3-((3-methyl-3-oxetanyl)ethynyl)spiro[chromeno[2,3-b]pyridine-5,4′-[1,3]oxazol]-2′-amine]
0.4 | 6 | CC#Cc1cnc(F)c(-c2ccc3c(c2)[C@@]2(COC(N)=N2)c2cc(-c4ccnc(F)c4)cnc2O3)c1 [Example 956, (5S)-7-(2-fluoro-5-(1-propyn-1-yl)-3-pyridinyl)-3-(2-fluoro-4-pyridinyl)spiro[chromeno[2,3-b]pyridine-5,4′-[1,3]oxazol]-2′-amine]
1.2 | 33 | CC1(C#Cc2cc3c(cn2)Oc2ccc(-c4c(F)ccnc4F)cc2[C@@]32COC(N)=N2)COC1 [Example 957, (5S)-7-(2,4-difluoro-3-pyridinyl)-3-((3-methyl-3-oxetanyl)ethynyl)spiro[chromeno[2,3-c]pyridine-5,4′-[1,3]oxazol]-2′-amine]
1.5 | 19 | Cc1ccc(-c2cnc3c(c2)[C@]2(CSC(N)=N2)c2cc(-c4cccnc4)ccc2O3)cn1 [Example 958, (5S)-3-(6-methyl-3-pyridinyl)-7-(3-pyridinyl)spiro[chromeno[2,3-b]pyridine-5,4′-[1,3]thiazol]-2′-amine]
